According to patent publication US20060035901A1, “Methotrexate derivatives useful for treating cancer and arthritis” (Serenex, Inc., priority 2004, published 2006):

Legend:
[1] = system: Lncap (prostate; carcinoma); assay: Cell proliferation assay (WST-1), Lncap; format: cell-based; conditions: Lncap cells
Procedure: (§1) A panel of cancer cell lines was obtained from the DCTP Tumor Repository, National Cancer Institute (Fredrick, Md.) or ATCC (Rockville, Md.). Cell cultures were maintained in Hyclone RPMI 1640 medium (Logan, Utah) supplemented with 10% fetal bovine serum and 20 mM HEPES buffer, pH 7.2, at 37° C., 5% CO2 atmosphere. Cultures were maintained at sub-confluent densities.
(§2) For proliferation assays, cells were seeded with the appropriate medium into 96 well plates at 1,000-2,000 cells per well, depending on cell line, and were incubated overnight. The following day, an amount of test compound, DMSO solution (negative control), or Actinomycin D (positive control) was added to the appropriate wells as 10× concentrated stocks prepared in phosphate buffered saline. The cell plates were then incubated for an additional 2-5 days, dependent on cell line, to allow for proliferation to occur. […] Optical density was determined for each well a 450 nm using a Tecan GniosPro plate reader (RTP, NC). The percentage of cell growth was then determined by comparing the cell growth in the presence of test compounds to the DMSO vehicle control treated cells (100% growth) and […] Actinomycin D treated cells (0% growth).

[2] = system: Human umbilical vein endothelial cells (HUVEC); assay: Cell proliferation assay (WST-1, Cyquant DNA), HUVEC; format: cell-based
Procedure: Human umbilical vein endothelial cells (HUVEC) were purchased from Clonetics, a division of Cabrex (Walkersville, Md.). Cultures were established from cryopreserved stocks using Clonetics EGM-2 medium supplemented with 20 mM HEPES, pH 7.2, at 37° C., 5% CO2 atmosphere.
as §2, with “saline.” for “saline. The cell plates were then incubated for an additional 2-5 days, dependent on cell line, to allow for proliferation to occur.”
(§3) Immediately after the WST-1 determination, the medium was removed from the NCI-H460 and HUVEC cell lines, and the plates stored at −80° C. Using these assay plates, relative DNA amounts in each well were determined using the Cyquant DNA assay kit from […] (Eugene, Oreg.) following the manufacturer's directions. […]

[3] = system: NCI-H460 (lung; large cell carcinoma); assay: Cell proliferation assay (WST-1, Cyquant DNA), NCI-H460; format: cell-based; conditions: NCI-H460 cells
Procedure: as §1
as §2, with “saline.” for “saline. The cell plates were then incubated for an additional 2-5 days, dependent on cell line, to allow for proliferation to occur.”
as §3

SkBr (breast cancer) = assay: Cell proliferation assay (WST-1), SkBr; format: cell-based; conditions: SkBr cells
Procedure: as §1, §2

[4] = system: OVCAR-3 (ovarian; adenocarcinoma); assay: Cell proliferation assay (WST-1), OVCAR-3; format: cell-based; conditions: OVCAR-3 cells
Procedure: as §1, §2

[5] = system: MCF-7 (mammary; adenocarcinoma); assay: Cell proliferation assay (WST-1), MCF-7; format: cell-based; conditions: MCF-7 cells
Procedure: as §1, §2

[6] = system: SK-Mel 5 (skin; melanoma); assay: Cell proliferation assay (WST-1), SK-Mel 5; format: cell-based; conditions: SK-Mel 5 cells
Procedure: as §1, §2

EGFR = EGFR (Homo sapiens, UniProt P00533); assay: Elution of EGFR from ATP-Sepharose column by compound (Proteome Mining), IC50 estimate; format: binding; conditions: estimated from percent of protein eluted from ATP-Sepharose column, gel densitometry; read-out: Approximate IC50 for EGFR
Procedure: A proteome containing a known quantity of Her2, EGFR, and B-Raf was run over an ATP-Sepharose™ column in order to bind all purine-binding proteins. See, WO 00/63694 and U.S. Provisional Application No. 60/453,697 filed Jan. 22, 2003, each of which is incorporated by reference in its entirety. The ATP-Sepharose™ was washed several times, and then eluted with the compound of Formula III. The experiment was run in duplicate at concentrations of 20 μM, 100 μM, and 500 μM of the compound of Formula III. The eluted fractions were run on a 1-dimensional SDS polyacrylamide gel. Gels were stained with a fluorescent stain such as sypro ruby (a highly sensitive fluorescent protein stain that can readily detect less than 1 fmol of total protein, i.e., less than 0.04 ng for a 40 kDa protein). The gels were imaged using a standard flat bed gel imager and the amount of protein estimated by densiometry. The percent of protein eluted from the column at each concentration was determined and IC50 values were calculated from these estimates. Where necessary, the eluted proteins were cut out of the gel, and identified using mass spectral techniques.
These steps were repeated with each of the compounds of Formulas IV-X, MTX, and the c series derivative.

[7] = system: OVCAR8 (ovarian; adenocarcinoma); assay: Cell proliferation assay (WST-1), OVCAR8; format: cell-based; conditions: OVCAR8 cells
Procedure: as §1, §2

[8] = system: DMS-114 (N/A; small cell); assay: Cell proliferation assay (WST-1), DMS-114; format: cell-based; conditions: DMS-114 cells
Procedure: as §1, §2

[9] = system: SF-268 (central nervous system; anaplastic astrocytoma); assay: Cell proliferation assay (WST-1), SF-268; format: cell-based; conditions: SF-268 cells
Procedure: as §1, §2

[10] = system: HT29 (colon; adenocarcinoma, GRIII); assay: Cell proliferation assay (WST-1), HT29; format: cell-based; conditions: HT29 cells
Procedure: as §1, §2

BT474 (breast cancer) = assay: Cell proliferation assay (WST-1), BT474; format: cell-based; conditions: BT474 cells
Procedure: as §1, §2

[11] = system: SR (lymphoma, pleural effusion); assay: Cell proliferation assay (WST-1), SR; format: cell-based; conditions: SR cells
Procedure: as §1, §2

Sequence of EGFR (P00533 25-1210, species assumed): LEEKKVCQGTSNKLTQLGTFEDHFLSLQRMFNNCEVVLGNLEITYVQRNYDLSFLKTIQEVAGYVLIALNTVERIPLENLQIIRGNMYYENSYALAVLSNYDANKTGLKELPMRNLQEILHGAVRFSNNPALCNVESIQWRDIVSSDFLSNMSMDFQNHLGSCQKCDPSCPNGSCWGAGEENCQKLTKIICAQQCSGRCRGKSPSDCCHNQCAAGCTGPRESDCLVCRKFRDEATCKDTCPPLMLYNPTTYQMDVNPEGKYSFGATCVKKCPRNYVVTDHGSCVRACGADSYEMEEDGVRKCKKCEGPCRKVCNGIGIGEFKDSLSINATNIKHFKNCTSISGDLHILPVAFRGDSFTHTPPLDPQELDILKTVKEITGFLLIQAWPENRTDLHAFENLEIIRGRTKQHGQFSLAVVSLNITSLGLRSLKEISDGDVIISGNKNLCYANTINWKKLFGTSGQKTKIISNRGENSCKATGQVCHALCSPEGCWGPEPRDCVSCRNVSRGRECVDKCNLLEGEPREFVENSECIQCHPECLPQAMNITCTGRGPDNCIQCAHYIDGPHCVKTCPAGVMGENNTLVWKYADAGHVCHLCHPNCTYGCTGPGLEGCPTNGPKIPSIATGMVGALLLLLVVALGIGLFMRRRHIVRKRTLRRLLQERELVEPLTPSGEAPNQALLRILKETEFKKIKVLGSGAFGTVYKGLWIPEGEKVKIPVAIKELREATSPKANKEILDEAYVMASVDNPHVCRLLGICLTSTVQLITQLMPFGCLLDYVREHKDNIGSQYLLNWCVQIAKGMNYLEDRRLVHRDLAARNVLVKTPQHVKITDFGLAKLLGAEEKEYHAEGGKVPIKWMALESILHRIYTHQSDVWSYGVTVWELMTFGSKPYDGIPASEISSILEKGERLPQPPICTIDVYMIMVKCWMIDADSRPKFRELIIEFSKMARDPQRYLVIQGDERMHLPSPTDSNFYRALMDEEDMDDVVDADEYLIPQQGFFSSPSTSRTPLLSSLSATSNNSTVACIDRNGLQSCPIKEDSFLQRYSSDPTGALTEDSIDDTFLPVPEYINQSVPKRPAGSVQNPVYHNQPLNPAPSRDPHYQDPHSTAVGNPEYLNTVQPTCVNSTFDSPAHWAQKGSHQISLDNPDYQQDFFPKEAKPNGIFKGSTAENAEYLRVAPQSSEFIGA

Fold Improvement in Cell Proliferation IC50 Compared to MTX [1]: 7 fold
Fold Improvement in Cell Proliferation IC50 Compared to MTX [3]: >1 fold
Fold Improvement in Cell Proliferation IC50 Compared to MTX (SkBr (breast cancer)): >2 fold
Fold Improvement in Cell Proliferation IC50 Compared to MTX [4]: >3 fold
Fold Improvement in Cell Proliferation IC50 Compared to MTX [5]: >1 fold
Fold Improvement in Cell Proliferation IC50 Compared to MTX [6]: >4 fold
IC50 (EGFR): 5 µM
Fold Improvement in Cell Proliferation IC50 Compared to MTX [7]: >2 fold
Fold Improvement in Cell Proliferation IC50 Compared to MTX [9]: >4 fold
Fold Improvement in Cell Proliferation IC50 Compared to MTX [10]: >6 fold
Fold Improvement in Cell Proliferation IC50 Compared to MTX (BT474 (breast cancer)): >5 fold
Fold Improvement in Cell Proliferation IC50 Compared to MTX [11]: >4 fold
SMILES: C#CCN(Cc1cnc2nc(N)nc(N)c2n1)c1ccc(C(=O)NC(CCC(=O)O)C(=O)O)cc1C (centres unmarked) [Formula III, 2-{4-[(2,4-diamino-pteridin-6-ylmethyl)-prop-2-ynyl-amino]-3-methyl-benzoylamino}-pentanedioic acid]
Fold Improvement in Cell Proliferation IC50 Compared to MTX [2]: >2 fold
Fold Improvement in Cell Proliferation IC50 Compared to MTX [8]: >4 fold
